Values of other authors in patent US8580245B2, “Compositions and methods for treating and preventing cardiomyopathy and heart disease” (The Regents of the University of Michigan, priority 2005, dated 2013).

Tested on: elderly men with isolated diastolic dysfunction
Conditions: verapamil vs placebo, 20 elderly men, p<0.05

Compound: COc1ccc(CCN(C)CCCC(C#N)(c2ccc(OC)c(OC)c2)C(C)C)cc1OC (stereo not shown) [verapamil]
- exercise time increase: 33%
- heart rate decrease: 10%
- peak left ventricular filling rate increase: 30%
- symptoms: improved
